Measurements: patent US20240277693A1, “A PHARMACEUTICAL PRODUCT CONTAINING TASQUINIMOD AND A METHOD FOR ASSESSING THE PURITY OF SAID PRODUCT” (ACTIVE BIOTECH AB, priority 2021, published 2024)

Columns and labels:
[1] = Stability testing of capsules at 40° C./75% RH; format: physicochemical
Excerpt: (§1) In some embodiments, the method disclosed herein comprises storing (keeping) a sample of the pharmaceutical product for a period of time, preferably under selected conditions of temperature and humidity. The amount (or concentration) of tasquinimod and of at least one of compounds I, II, III and IV in the sample may preferably be determined at the beginning or before the storage period and at the end of the storage period. The selected storage conditions may include a temperature in the range of, for example, 20° C. to 40° C., and a relative humidity in the surrounding atmosphere in the range of, for example, 30% to 75%; e.g. 25° C. and 60% RH, or 30° C. and 65% RH, or 35° C. and 70% RH, or 40° C. and 75% RH. The storage period may extend over a time period in the range of, for example, several weeks to several years. For example, the stability testing period (“storage period”) may be 2 weeks, 3 weeks, 1 month, 2 months, 3 months, 4 months, 5 months, 6 months, 9 months, 1 year, 18 months, 2 years, 3 years, 4 years or even 5 years or longer. A shorter storage period may be selected by use of higher storage temperature and/or higher relative humidity (RH). The total amount of a tasquinimod decomposition product in the sample at the end of the storage period may be determined by, for example, HPLC.
The batch of capsules manufactured in Example 2 was assessed by determining the amount of tasquinimod and the amount of compound III in a sample of the capsules, whereby the criterion for approving the batch was that a sample of capsules from the batch, at the end of a 1-month stability testing, contain not more than 1.0% w/w of compound III relative to the amount of tasquinimod. The stability testing consisted of keeping the capsules at 40° C./75% RH in open brown glass jars. At the end of the 1-month stability testing, the capsules contained 0.13% w/w of compound III, relative to the amount of tasquinimod (1.04 mg/capsule). Therefore, according to the selected criterion for approval, the batch of capsules was determined to be suitable for distribution.
The batch of capsules manufactured in Example 7 was assessed by determining the amount of tasquinimod and the amount of compound III in a sample of the capsules, whereby the criterion for approving the batch was that a sample of capsules from the batch, at the end of a 3-month stability testing, contain not more than 1.0% w/w of compound III relative to the amount of tasquinimod in the capsules. The stability testing consisted of keeping the capsules at 40° C./75% RH in sealed brown glass jars. At the end of the stability testing, the capsules contained 0.08% w/w of compound III, relative to the amount of tasquinimod (0.493 mg/capsule). Therefore, according to the selected criterion for approval, the batch of capsules was determined to be suitable for distribution.
The batch of capsules manufactured in Example 13 was assessed by determining the amount of tasquinimod and the amount of compound III in a sample of the capsules, whereby the criterion for approving the batch was that the capsules of the sample, at the end of a 3-month stability testing, contain not more than 1.0% w/w of compound III relative to the amount of tasquinimod in the capsules. The stability testing consisted of keeping the capsules, in a transparent, conventional blister pack, at 40° C./75% RH. At the end of the stability testing, the capsules contained 0.12% w/w of compound III, relative to the amount of tasquinimod (determined to be 0.253 mg/capsule). Therefore, according to the selected criterion for approval, the batch of capsules was determined to be suitable for distribution.

[2] = Stability testing of capsules at 25° C./60% RH in water impermeable blister pack; format: physicochemical
Excerpt: as §1
The batch of capsules manufactured in Example 19 was assessed by determining the amount of tasquinimod and the amount of each one of compounds I, II, III and IV in a sample of the capsules at the end of a 3-month stability testing, whereby the criterion for approving the batch was that the capsules of the sample, at the end of the 3-month stability testing, contain a total amount of compounds I-IV of not more than 5.0% w/w, relative to the amount of tasquinimod in the capsules. The stability testing consisted of keeping the capsules, in a water impermeable blister pack, at 25° C./60% RH. At the end of the stability testing, the capsules contained 0.06% w/w of compound I, less than 0.05% w/w of compound II, 0.10% of compound III and less than 0.05% w/w of compound IV, relative to the amount of tasquinimod (determined to be 0.246 mg/capsule), viz. in total less than 0.26% w/w of compounds I-IV relative to the amount of tasquinimod. Therefore, according to the selected criterion for approval, the batch of capsules was determined to be suitable for distribution.
The obtained batch of capsules was subjected to multiple assessments, viz. a first assessment comprising determining the amount of tasquinimod and the amount of compounds I, II, III and IV in a sample of the capsules directly after manufacturing, whereby the selected criterion for approving the batch for distribution was that the capsules of the sample, in a water impermeable blister pack, contain not more than in total 5% w/w of compounds I-IV relative to the amount of tasquinimod, followed by eight further, independent assessments, by determining the amount of tasquinimod and the amount of each one of compounds I, II, III and IV in a sample of the capsules at the end of a period of stability testing (by keeping the capsules, in a water impermeable blister pack, at 25° C./60% RH) of 3, 6, 9, 12, 18, 24, 36 and 48 months, respectively, whereby each time the criterion for approving the batch was that the capsules of the sample, at the end of each period of stability testing, contain a total amount of compounds I-IV of not more than 5.0% w/w, relative to the amount of tasquinimod in the capsules.

**Q.** For `COc1cccc2c1c(O)cc(=O)n2C` [Compound III, 4-hydroxy-5-methoxy-1-methylquinolin-2(1H)-one], which “amount of compound III in capsules, relative to the amount of tasquinimod” value ([1]; 0.25 mg capsules of Example 10, 3 months, sealed brown glass jars) is on record?
**A.** 0.10 % w/w

**Q.** What about the “amount of compound III in capsules, relative to the amount of tasquinimod” value ([1]; 0.25 mg capsules of Example 10, 6 months, sealed brown glass jars) of the same compound?
**A.** 0.10 % w/w

**Q.** And the “amount of compound III in capsules, relative to the amount of tasquinimod” value ([1]; 0.25 mg capsules of Example 13, 3 months, transparent blister pack)?
**A.** 0.12 % w/w

**Q.** What about the “amount of compound III in capsules, relative to the amount of tasquinimod” value ([1]; 0.25 mg capsules of Example 13, 6 months, blister pack) of the same compound?
**A.** 0.24 % w/w

**Q.** What about the “amount of compound III in capsules, relative to the amount of tasquinimod” value ([1]; 0.5 mg capsules of Example 7, 3 months, sealed brown glass jars) of the same compound?
**A.** 0.08 % w/w

**Q.** What about the “amount of compound III in capsules, relative to the amount of tasquinimod” value ([1]; 0.5 mg capsules of Example 7, 6 months, sealed brown glass jars) of the same compound?
**A.** 0.14 % w/w

**Q.** What about the “amount of compound III in capsules, relative to the amount of tasquinimod” value ([1]; 1 mg capsules of Example 2, 1 month, open brown glass jars) of the same compound?
**A.** 0.13 % w/w

**Q.** And the “amount of compound III in capsules, relative to the amount of tasquinimod” value ([1]; 1 mg capsules of Example 2, 2 months, open brown glass jars)?
**A.** 0.12 % w/w

**Q.** What about the “amount of compound III in capsules, relative to the amount of tasquinimod” value ([1]; 1 mg capsules of Example 2, 3 months, open brown glass jars) of the same compound?
**A.** 0.14 % w/w

**Q.** What about the “amount of compound III in capsules, relative to the amount of tasquinimod” value ([1]; 1 mg capsules of Example 2, 6 months, open brown glass jars) of the same compound?
**A.** 0.16 % w/w

**Q.** What about the “amount of compound III in capsules, relative to the amount of tasquinimod” value ([1]; 1 mg capsules of Example 16, 3 months, transparent blister pack) of the same compound?
**A.** 0.13 % w/w

**Q.** What about the “amount of compound III in capsules, relative to the amount of tasquinimod” value ([1]; 1 mg capsules of Example 16, 6 months, blister pack) of the same compound?
**A.** 0.21 % w/w

**Q.** And the “amount of decomposition product (each of compounds I-IV) in capsules, relative to the amount of tasquinimod” value ([2]; 0.25 mg capsules of Example 19, 3 months)?
**A.** 0.10 % w/w

**Q.** What about the “amount of decomposition product (each of compounds I-IV) in capsules, relative to the amount of tasquinimod” value ([2]; 0.25 mg capsules of Example 19, 6 months) of the same compound?
**A.** 0.16 % w/w

**Q.** And the “amount of decomposition product (each of compounds I-IV) in capsules, relative to the amount of tasquinimod” value ([2]; 0.25 mg capsules of Example 19, 9 months)?
**A.** 0.21 % w/w

**Q.** And the “amount of decomposition product (each of compounds I-IV) in capsules, relative to the amount of tasquinimod” value ([2]; 0.25 mg capsules of Example 19, 12 months)?
**A.** 0.26 % w/w

**Q.** What about the “amount of decomposition product (each of compounds I-IV) in capsules, relative to the amount of tasquinimod” value ([2]; 0.25 mg capsules of Example 19, 18 months) of the same compound?
**A.** 0.35 % w/w

**Q.** What about the “amount of decomposition product (each of compounds I-IV) in capsules, relative to the amount of tasquinimod” value ([2]; 0.25 mg capsules of Example 19, 24 months) of the same compound?
**A.** 0.41 % w/w

**Q.** And the “amount of decomposition product (each of compounds I-IV) in capsules, relative to the amount of tasquinimod” value ([2]; 0.25 mg capsules of Example 19, 36 months)?
**A.** 0.57 % w/w

**Q.** What about the “amount of decomposition product (each of compounds I-IV) in capsules, relative to the amount of tasquinimod” value ([2]; 0.25 mg capsules of Example 19, 48 months) of the same compound?
**A.** 0.79 % w/w

**Q.** What about the “Decomposition products (% w/w), relative to the amount of tasquinimod in capsule” value ([2]; 0.5 mg capsules of Example 28, 3 months) of the same compound?
**A.** 0.05 % w/w

**Q.** What about the “Decomposition products (% w/w), relative to the amount of tasquinimod in capsule” value ([2]; 0.5 mg capsules of Example 28, 6 months) of the same compound?
**A.** 0.09 % w/w

**Q.** What about the “Decomposition products (% w/w), relative to the amount of tasquinimod in capsule” value ([2]; 0.5 mg capsules of Example 28, 9 months) of the same compound?
**A.** 0.11 % w/w

**Q.** And the “Decomposition products (% w/w), relative to the amount of tasquinimod in capsule” value ([2]; 0.5 mg capsules of Example 28, 12 months)?
**A.** 0.13 % w/w

**Q.** What about the “Decomposition products (% w/w), relative to the amount of tasquinimod in capsule” value ([2]; 0.5 mg capsules of Example 28, 18 months) of the same compound?
**A.** 0.16 % w/w

**Q.** And the “Decomposition products (% w/w), relative to the amount of tasquinimod in capsule” value ([2]; 0.5 mg capsules of Example 28, 24 months)?
**A.** 0.19 % w/w

**Q.** What about the “Decomposition products (% w/w), relative to the amount of tasquinimod in capsule” value ([2]; 0.5 mg capsules of Example 28, 36 months) of the same compound?
**A.** 0.27 % w/w

**Q.** What about the “Decomposition products (% w/w), relative to the amount of tasquinimod in capsule” value ([2]; 0.5 mg capsules of Example 28, 48 months) of the same compound?
**A.** 0.36 % w/w

**Q.** And the “Decomposition products (% w/w), relative to the amount of tasquinimod in capsule” value ([2]; 1.0 mg capsules of Example 29, 3 months)?
**A.** <0.05 % w/w

**Q.** And the “Decomposition products (% w/w), relative to the amount of tasquinimod in capsule” value ([2]; 1.0 mg capsules of Example 29, 6 months)?
**A.** <0.05 % w/w

**Q.** And the “Decomposition products (% w/w), relative to the amount of tasquinimod in capsule” value ([2]; 1.0 mg capsules of Example 29, 9 months)?
**A.** <0.05 % w/w

**Q.** What about the “Decomposition products (% w/w), relative to the amount of tasquinimod in capsule” value ([2]; 1.0 mg capsules of Example 29, 12 months) of the same compound?
**A.** 0.06 % w/w

**Q.** What about the “Decomposition products (% w/w), relative to the amount of tasquinimod in capsule” value ([2]; 1.0 mg capsules of Example 29, 18 months) of the same compound?
**A.** 0.09 % w/w

**Q.** And the “Decomposition products (% w/w), relative to the amount of tasquinimod in capsule” value ([2]; 1.0 mg capsules of Example 29, 24 months)?
**A.** 0.10 % w/w

**Q.** And the “Decomposition products (% w/w), relative to the amount of tasquinimod in capsule” value ([2]; 1.0 mg capsules of Example 29, 36 months)?
**A.** 0.15 % w/w

**Q.** What about the “Decomposition products (% w/w), relative to the amount of tasquinimod in capsule” value ([2]; 1.0 mg capsules of Example 29, 48 months) of the same compound?
**A.** 0.18 % w/w
